This is an account of results in US7786097B2, “Tricyclic compounds, compositions and methods” (Pfizer Inc., priority 2007, dated 2010).

Common to all, as to format: cell-based
Assay [1] has as its system IL-6 levels in Human A549 lung epithelial cells. Nature of the assay: IL-1β-stimulated IL-6 in A549 cells. Conditions: additional results (footnote a). The method, then: IL-6 IC50 and % Inhibition
Human A549 lung epithelial cells (American Type Culture Collection, Rockville, Md.) were cultured in Kaighn's F-12K medium with penicillin-streptomycin (10 U/mL) and 10% heat-inactivated fetal bovine serum (all from Invitrogen, Grand Island, N.Y.). A549 cells were plated at a density of 30,000 cells/well in 96-well plates and incubated overnight at 37° C. and with 5% CO2. The cells were serum-starved by replacing the growth medium with serum-free Kaighn's F-12K medium with penicillin-streptomycin (10 U/mL) and, again, incubating overnight at 37° C. and with 5% CO2. On the third day, the medium was replaced with fresh serum-free medium and the cells were incubated with or without compound (vehicle was DMSO at 0.1% maximum concentration) for approximately 1 hour and then stimulated with 1 ng/mL recombinant human IL-1β (R&D Systems, Minneapolis, Minn.) for 20 hours at 37° C. and with 5% CO2. Cell supernatants were collected for determination of IL-6 levels using MSD (Meso Scale Discovery, Gaithersburg, Md.) 96-well Single Spot plates as per the manufacturer's instructions. Plates were read with an MSD Sector Imager 6000. […] Vehicle was used to define the 0% inhibition control. Percent inhibition for each compound concentration, relative to these controls, was calculated using Excel (Microsoft, Redmond, Wash.). […]

Assay [2] deals with IL-6 production in human whole blood. Nature of the assay: Ex vivo LPS-stimulated human whole blood, IL-6. Conditions: LPS 100 ng/ml, 22 hours, mean of two donors. The procedure: (§1) Venous blood from human donors was collected as 10 ml aliquots in tubes containing sodium heparin (BD Vacutainer from Becton Dickinson and Company, Franklin Lakes, N.Y.). Blood was added to sterile polystyrene round bottom 96-well tissue culture plates (Corning Costar) at 100 μl/well, omitting the outside wells. Media (RPMI Medium 1640 with L-glutamine, Invitrogen Corporation, Carlsbad, Calif.) was added to the blood in 90 μl aliquots for a total volume of 190 μl. Outside wells were filled with 200 μl of media. Blood was placed in a humidified 37° C. incubator with 5% CO2 while compounds were prepared (nearly 60 minutes).
(§2) Compounds were prepared from 10 mM stock solutions in dimethylsulfoxide (DMSO, Sigma-Aldrich). […] Final DMSO and ethanol concentrations in the assay were 0.1% and 1.5%. The samples were gently triturated twice to mix and replaced in the incubator. LPS stock (E. coli serotype 0111:B4, Sigma-Aldrich), stored in aliquots of 100 μg/ml in RPMI at −20° C., was diluted 1/50 in RPMI to make a working stock solution. After 60 minutes of incubation, 10 μl of the prepared LPS working stock was added to the blood to a final concentration of 100 ng/ml, omitting wells to be used as negative control. The samples were again gently triturated and the plates incubated overnight for 22 hours. Following incubation, the blood was centrifuged at 1500×g for 5 minutes and the plasma removed to either freeze at −20° C. or assay for cytokine release.
(§3) IL-1β, IFNγ, IL-6, and TNFα protein levels were measured using Meso Scale assay kits (Meso Scale Discovery, Gaithersburg, Md.). Reagents were allowed to come to room temperature. Meso Scale plates were blocked with 30 μl of human plasma/serum assay diluent with gentle shaking for 60 minutes at room temperature. Plates were washed 3× with wash buffer (PBS, Invitrogen Corporation, with 0.05% Tween-20, Sigma-Aldrich). Calibrators for standard curves were prepared in human plasma/serum assay diluent as a […] serial dilution to achieve final concentrations ranging from 50000 pg/ml to 3.2 pg/ml. Samples and calibrators were added at 20 μl/well, then incubated at room temperature with gentle shaking for 90 minutes. Plates were again washed 3 times with wash buffer. Detection antibody was diluted in human plasma/serum antibody diluent to 1 μg/ml and added to the plate at 20 μl/well. Plates were incubated as before for 60 minutes and washed again. Read Buffer T<4×) was diluted 1:1 with mqH2O to 2 times concentration and 150 μl added to each well. Plates were analyzed on the SECTOR Imager 6000 (Meso Scale Discovery) to generate raw signal values.
(§4) IL-1β, IFN-γ, IL-6, and TNFα sample values were verified to be within the calibrator standard curves. Individual values were compared to positive and negative controls (vehicle treated blood with LPS and vehicle treated blood without LPS, respectively) to generate % inhibition. Triplicate values were averaged for each donor. The values for two donors were averaged (only one donor was used for IL-1β) and graphed using 4-parameter fit curves in the GraFit 5.0.11 application.

Assay [3] deals with TNFα production in human whole blood. Nature of the assay: Ex vivo LPS-stimulated human whole blood, TNFα. Conditions: LPS 100 ng/ml, 22 hours, mean of two donors. The method, then:
as §1, §2, §3, §4

For the compound `C[C@]12C=CC(=O)C=C1CC[C@@H]1[C@@H]2[C@@H](O)C[C@@]2(C)[C@H]1CC[C@]2(O)C(=O)CO` [Prednisolone], the “IL-6 % Inhibition” value in assay [1] is listed as 100%. For the same compound, the inhibition at 0.000457247 µM in assay [2] (0.457247 nM) amounted to 2.22%. The results for the inhibition at 0.00137174 µM in assay [2] (1.371742 nM) and in assay [3] (1.371742 nM) were -0.941% and 6.61%, respectively. Moreover, the inhibition at 0.00411523 µM in assay [2] (4.115226 nM) was -0.232%; in assay [3] (4.115226 nM), 5.31%. Besides, the inhibition at 0.0123457 µM was -0.417% in assay [2] (12.34568 nM) and 12.9% in assay [3] (12.34568 nM). In addition, the inhibition at 0.037037 µM in assay [2] (37.03704 nM) came out at 5.03%; in assay [3] (37.03704 nM), 27.7%. Further, the inhibition at 0.111111 µM in assay [2] (111.1111 nM) worked out at 11.7%; in assay [3] (111.1111 nM), 62.4%. Also, the inhibition at 0.333333 µM in assay [2] (333.3333 nM) amounted to 40.3%; in assay [3] (333.3333 nM), 89%. The inhibition at 1 µM in assay [2] (1000 nM) amounted to 62.1%; in assay [3] (1000 nM), 93.9%.

As usually defined, the inhibition is the drop in the measured response relative to a control, in per cent.
